Reference: patent US10632147B2, “Methods and compositions for treating inflammatory disorders” (priority 2007, dated 2020)

Tested on: Enterococcus faecium ATCC #35667
Assay: Microbial Time Kill Assay
Assay type: cell-based
Settings: 150 ppm AFC, 15 second contact time

OCl [hypochlorous acid]
% Reduction (% Kill): >99.999%
HOCl Solution Log10: ≤1
HOCl Solution Survivors: <10
Log Reduction: ≥5.08
